Measurements from patent publication US20020065213A1, “METHODS AND COMPOSITIONS FOR NONVIRAL GENE DELIVERY” (priority 1998, published 2002).

How the values were obtained:
murine B 16 cells = assay: Inhibition of in vitro CLDC-mediated transfection (luciferase) by polysaccharide pretreatment
ICR mice = assay: Host pretreatment before i.v. CLDC or naked DNA, tissue luciferase activity; type: in vivo, mouse
Procedure: Plasmid: p4241 (HCMV-luciferase, see Liu et al., 1997).
Liposomes: DOTIM:chol MLV in 1:1 molar ratio.
DNA:Liposome Ratio: liposome:plasmid 1:16 (μg plasmid DNA to nanomoles total lipid).
Pretreatment: Individual mice in groups of 5 received either 200 μl of D5W only by IV injection, 1 mg dexamethasone (Sigma) in 200 μl D5W by IV tail vein injection, 250 μg Ticlopidine (Sigma) dissolved in 200 μl D5W by IV injection, 175 μg ammonium chloride (Fisher) dissolved in 1000 μl D5W by IP injection, respectively, four hours before IV injection of CLDC. For 4-APP pretreatment, a group of 5 mice were IP injected with 1.5 mg of 4-Aminopyrazolo(3,4d)-pyrimidine (Sigma, A2630) dissolved in 1 ml 0.01 M sodium phosphate, pH 2.5, daily for three days before receiving an IV injection of p4241-containing CLDC as described above. Another group of 5 mice received 1 ml 0.01 M Sodium Phosphate, pH 2.5 solution by IP injection daily for three days before receiving an injection of IV CLDC as above, thus serving as control for 4-APP pretreatment group.
DNA dose: 40 μg plasmid DNA in 200 μl of 5% dextrose in water (D5@) was injected by tail vein per mouse.
Animals: ICR mice:female, 25 grams (Simonsen Labs, Gilroy, Calif.).
Quantitation of luciferase: Twenty-four hours after injection of CLDC, mice were sacrificed in a CO2 chamber, and lungs, heart, spleen and liver were collected and assayed for luciferase activity. Relative light units were converted to luciferase activity, and an unpaired, two side Student's t test applied for statistical analysis of potential differences between groups as described previously (Liu et al., 1997).
In another experiment, the effect of pretreatment on subsequent expression of the same plasmids delivered as naked DNA was examined. Pretreated animals were injected with 6.25 mg of mannitol (Sigma, MO) in 200 microliters of water 2 hours or 24 hours prior to iv administration of the p4241 luciferase vector as naked DNA in water, 50% glycerol or D5W. Control animals received water alone as a pretreatment. […]

ICR female mice = assay: Pretreatment of mice before intravenous CLDC (p4241): luciferase, Southern analysis, rhodamine-lipid; type: in vivo, mouse
Procedure: In vivo transfections. Each mouse received 50 μg p4241 complexed to DOTIM:cholesterol MLV containing 1 mole % rhodamine-PE at a ratio of 1:16 (μg DNA per nmole total lipid). Approximately 25 g ICR female mice (Simonson, Gilroy, Calif.) received 200 μl of CLDC intravenously by tail vein injection. Pretreatments of mice were also by intravenous tail vein injections. Fucoidan, dissolved in phosphate buffered saline (PBS), was pre-injected at a dosage of 500 μg per mouse 0, 1, 2, 10, 24, or 48 hrs prior to CLDC injection. Heparinase I and III (Sigma) were dissolved in 0.15 M sodium chloride at a concentration of 75 units per 100 μl, and 100 μl per mouse were injected 15 minutes prior to injection of CLDC. Control mice were preinjected at appropriate times with either PBS or 0.15 M sodium chloride. As an additional control, heparinase I was boiled for 10 minutes to denature and deactivate the enzyme prior to pre-injection. Mice were harvested 24 hours post-CLDC injection, and pieces of lung, liver, heart, and spleen were placed in 1X lysis buffer (Promega, Madison, Wis.) on ice for luciferase assays (Liu et al., 1997). Samples of liver and lung were frozen on dry ice prior to Bligh Dyer extractions for rhodamine-liposome fluorescence analysis and isolation of DNA for Southern analysis as described (Liu et al., 1997).

B16 cells, PPC-1 cells = assay: Effect on calcium phosphate, adenoviral and electroporation transfection in vitro; type: cell-based
Procedure: B16 cells were electroporated with p4241 as per BioRad (Hercules, Calif.) instructions for the GenePulser II. Calcium phosphate transfections were performed as described in the manufacturer's instructions (Gibco BRL, Grand Island, N.Y.). Adenoviral infection of PPC-1 cells was performed as previously described (Graham and […], 1991).

B16 cells = assay: DNA uptake by cells after CLDC transfection (luciferase, Southern analysis of nuclear and total DNA); type: cell-based, mouse
Procedure: Southern analysis. Isolation of total DNA from mouse tissues was performed as described (Liu et al., 1997). Approximately 2×10^6 B16 cells were cultured in 100 mm dishes for each DNA extraction from cultured cells. Two hundred nanograms of DNA per lane were fractionated on 1% agarose/1X TAE gels overnight. Blotting onto Hybond membrane (Amersham, Arlington Heights, Ill.), prehybridization, hybridization, and washes were performed as described (Sambrook et al., 1989). A 1.2 kb HindIII/EcoRV gel-purified fragment of luciferase from p4241 was radioactively labelled using the Random Primed DNA Labeling Kit (Boehringer Mannheim, Indianapolis, Ind.). Nuclei were isolated from 2×10^6 B16 cells as described (Sambrook et al., 1989), and lysed in NP40 lysis buffer (10 mM Tris, pH 7.4, 10 mM sodium chloride, 3 mM magnesium chloride, and 0.5% nonidet P-40). Nuclear DNA was then isolated from washed nuclei using the same technique as for total DNA isolation (Sambrook et al., 1989).
Fucoidan inhibited CLDC-mediated transfection in vitro by blocking DNA uptake by cells. Nuclei were isolated from cells untreated or pretreated with fucoidan and subsequently transfected with CLDC, and nuclear DNA was assayed for the presence of the luciferase plasmid used in making the complex. The nuclei of cells untreated with fucoidan contained luciferase plasmid, as expected from the high levels of luciferase activity observed in untreated cells. Therefore, DNA did traverse the cell membranes of untreated cells.

[1] = iv 15 minutes before CLDC injection
[2] = cells pretreated for 30 minutes with 1 μM

dextran was tested. Which “CLDC transfection at high concentrations” value (murine B 16 cells) did it give?
The value was “significant elevation of transfection”.

And the “CLDC transfection in vitro after pretreatment of cells” value (murine B 16 cells)?
Its value is “failed to inhibit transfection”.

What does the source list for `OC[C@@H](O)[C@@H](O)[C@H](O)[C@H](O)CO` [mannitol]?
in vivo expression of luciferase from p4241 versus controls (ICR mice; 6.25 mg 2 hours prior to iv naked DNA): significantly higher; luciferase expression (ICR mice; 6.25 mg 24 hours prior to p4241): Some increase

Which results are given for heparin?
CLDC-mediated gene transfer following intravenous injection of CLDC into mice (ICR female mice; mouse, in vivo, iv): abolished CLDC-mediated gene transfer; CLDC transfection in vitro after pretreatment of cells (murine B 16 cells): largely blocked

With `Nc1ncnc2[nH]ncc12` [Plasmid 4-APP, 4-Aminopyrazolo(3,4d)-pyrimidine] as the molecule, how does the “luciferase activity versus buffer-pretreated mice” value (ICR mice; preinjection before iv CLDC (p4241), 24 hours after CLDC) read?
Its value is “significantly increased luciferase activity”.

With heparinase I as the molecule, how does the “reporter plasmid DNA in lungs, fold less than control lungs (Southern analysis)” value (ICR female mice; [1]) read?
Its value is 2 fold.

And the “rhodamine labelled lipid recovered from lungs” value (ICR female mice; [1])?
The value was “significantly decreased the levels of rhodamine labelled lipid”.

What about the “transfection efficiency of CLDC (luciferase) in lungs, hearts and spleens” value (ICR female mice; [1]) of the same molecule?
Its value is “significantly decreased”.

Which results are given for dextran sulfate?
CLDC transfection in vitro after pretreatment of cells (murine B 16 cells): largely blocked; concentration sufficient to block transfection (murine B 16 cells; murine B 16 cells): 10 nM

With fucoidan as the molecule, how does the “transfection by calcium phosphate” value (B16 cells, PPC-1 cells) read?
Its value is “inhibited the transfection”.

What about the “luciferase DNA in nuclei” value (B16 cells; [2]) of the same molecule?
The value was “no luciferase DNA in their nuclei”.

And the “luciferase expression of cells” value (B16 cells; [2])?
The value was “did not express luciferase”.

What about the “Southern analysis of total DNA from whole cell extracts” value (B16 cells; pretreated cultured cells) of the same molecule?
The value was “failed to show evidence of any DNA crossing the cell membranes”.

And the “luciferase activity in lung and heart tissues” value (ICR female mice; 500 μg per mouse iv, 1 hour before CLDC)?
Its value is “drastic reductions in luciferase activity”.

And the “CLDC mediated transfection of lung cells” value (ICR female mice; 10 hours post exposure)?
The value was “still inhibits CLDC mediated transfection of lung cells”.

And the “rhodamine-lipid found in the lung and liver” value (ICR female mice; one hour pretreatment)?
The value was “significantly decreased levels of rhodamine-lipid”.

What about the “p4241 plasmid in total DNA from lungs and livers (Southern analysis)” value (ICR female mice; pretreated for 1 hour) of the same molecule?
Its value is “decreased levels of p4241 plasmid”.

And the “magnitude of luciferase depression in tissues” value (ICR female mice; pretreated for 1 hour in vivo)?
Its value is “approximately 100 fold”.

What about the “decrease in p4241 plasmid in nuclear DNA isolated from lungs” value (ICR female mice; treated versus untreated animals) of the same molecule?
Its value is 3 fold.

And the “CLDC transfection in vitro after pretreatment of cells” value (murine B 16 cells)?
Its value is “largely blocked”.

And the “effect on CLDC-mediated transfection, cells pretreated” value (murine B 16 cells; 10 nM)?
Its value is “little effect”.
